# Measurements from patent US20130123287A1, “CONTROL AGENT FOR SOFT ROT AND CONTROL METHOD FOR THE SAME” (ISHIHARA SANGYO KAISHA, LTD., priority 2010, published 2013).
# What was measured:
# [1] = test system: bacteria causing the soft rot (Erwinia carotovora); assay: Inhibition test of growth of bacteria causing soft rot, Reference Test Example 4; format: cell-based; conditions: for formed colonies (growth state), grade: PSA medium, 27 degrees Celsius, 2 days; for inhibition of growth of Erwinia carotovora (in words): active ingredient concentration of 1,000 ppm
# Description: An inhibition test of the growth of bacteria causing the soft rot was done, when a control agent was directly applied to the bacteria causing the soft rot. A given volume of each pesticide of kresoxim-methyl (STROBY DF [trade name] manufactured by BASF), thiophanate methyl (Topsin M WP [trade name], manufactured by Nippon Soda Co., Ltd), boscalid (Cantus DF [trade name] manufactured by BASF), procymidone (Sumilex WP [trade name] manufactured by Sumitomo Chemical Agro Co., Ltd.) and streptomycin (Mycin Wettable powder [trade name] manufactured by Hokko Chemical Industry Co., Ltd.) was added together with a suspension of the bacteria causing the soft rot (Erwinia carotovora) to a preliminarily dissolved PSA culture medium (55 degrees Celsius) for subsequent thorough agitation, which was then spread on a plate for culturing at 27 degrees Celsius for 2 days, to examine the growth state. Subsequently, the formed colonies were examined according to the following three grades. • +: at the same level as the level of non-treated lot. Plus or minus: apparently less than the colonies of the non-treated lot. • −: almost no colonies observed.
# [2] = test system: soft rot of Chinese cabbage; assay: Test for controlling soft rot of Chinese cabbage, Example 4 / Comparative Example 4 (field, cultivar Ouraku 60); format: in vivo; conditions: 150 L/10 a sprayed onto planting holes before planting, 49 days after start
# Description: Frequency of the disease=[sigma(number of plants with the onset of the disease at each severity level*index of the onset of the disease)/(plants examined*4)]*100
# Disease control value=[1-(frequency of the disease in the treated lot/frequency of the disease in the non-treated lot)]*100
# • 0: No onset • 1: Onset in some of outer leaves (shippable) • 2: Onset in outer leaves and some of head leaves (by removing damaged parts, the resulting cabbage can be shipped as small cabbage but is ranked as grade B). • 3: Most of head leaves are inflicted with the onset of the disease or with severer damages (not shippable) • 4: Whole cabbage plant is inflicted with the onset of the disease and is dead.
# 442 g/lkresoxim-methyl (STROBY FLOWABLE [trade name], manufactured by BASF) was adjusted to 500 g ai/10a (0.5 g/m^2, 1131 ml Product/10a) as the amount of the active ingredient and to 150 L/10a as the volume of diluent water.
# 70% w/w thiophanate methyl (Topsin M WF [trade name], manufactured by Nippon Soda Co., Ltd.) was adjusted to 1000 g ai/10a (1 g/m^2, 1429 g Product/10a) as the amount of the active ingredient and to 150 L/10a as the volume of diluent water.
# 50% w/w boscalid (Cantus DF [trade name], manufactured by BASF) was adjusted to 500 g ai/10a (0.5 g/m^2; 1000 g Product/10a) as the amount of the active ingredient and to 150 L/10a as the volume of diluent water.
# 50% w/w procymidone (Sumilex WP [trade name], manufactured by Sumitomo Chemical Agro) was adjusted to 500 g ai/10a (0.5 g/m^2, 1000 g Product/10a) as the amount of the active ingredient and to 150 L/10a as the volume of diluent water.
# 400 g/l iprodione (Rovral 500 Aqua [trade name], manufactured by Bayer Crop Science Co., Ltd.) was adjusted to 500 g ai/10a (0.5 g/m^2, […] Product/10a) as the amount of the active ingredient and to 150 L/10a as the volume of diluent water.
# 200 g/l fludioxonil (Seibia FLOWABLE [trade name], manufactured by Syngenta Japan K.K.) was adjusted to 500 g ai/10a (0.5 g/m^2, 2500 ml Product/10a) as the amount of the active ingredient and to 150 L/10a as the volume of diluent water.
# 400 g/l mepanipyrim (Flupika PLOWABLE [trade name], manufactured by Nippon Soda Co., Ltd.) was adjusted to 500 g ai/10a (0.5 g/m^2, 1250 ml Product/10a) as the amount of the active ingredient and to 150 L/10a as the volume of diluent water.
# After spreading an agricultural mulch-sheet and opening planting holes (diameter of about 5 cm) for permanent planting through the mulch-sheet, the spray solutions prepared as described above were sprayed onto the planting holes such that the amount of treated active ingredient of each spray solution was 0.5 g/m^2 (150 L per 10a), followed by air-drying; subsequently, seedlings of Chinese cabbage (cultivar: Ouraku 60) grown for 4 weeks in cell mold trays (128 holes/nursery box) were planted such that 30 seedlings were planted in each test lot having an area of 2.5 m^2 with two replications.
# Preparation was performed by diluting a chemical solution (Agrimycin WP100 [trade name] manufactured by Pfizer) containing oxytetracycline at 1.5% and streptomycin sulfate salt at 18.8% with water to 1/1500.
# In a field spread with the agricultural mulch-sheet, Chinese cabbage seedlings (cultivar: Ouraku 60) grown by the same method as in Example 4 were planted by the same method as in Example 4, for spraying the spray solution prepared above in (1) (at each spray volume of 300 L/10a) twice (28 days and 42 days after the planting of the seedlings) on the stems and leaves.
# 49 days after the start of the tests, all the plants in each lot were examined about the severity level of the disease to assess the frequency of the disease and the disease control value. Herein, the frequency of the disease and the disease control value were determined in the same manner as described above. Because soft rot is a disease with damages hardly controlled, herein, even a chemical at the level C determined by the tests of the effects can practically be used.
# [3] = test system: bacteria causing the soft rot (Erwinia carotovora); assay: Inhibition test of growth of bacteria causing soft rot, Reference Test Example 6; format: cell-based; conditions: for formed colonies (growth state), grade: PSA medium, 27 degrees Celsius, 3 days; for inhibition of growth of Erwinia carotovora (in words): active ingredient concentration of 1,000 ppm
# Description: (§1) An inhibition test of the growth of bacteria causing the soft rot was done, when a control agent was directly applied to the bacteria causing the soft rot. A given volume of each pesticide of fludioxonil (Seibia FL [trade name] manufactured by Syngenta Japan K.K.), iminoctadine albesilate salt (Bellkute WP [trade name], manufactured by Nippon Soda Co., Ltd.), iprodione (Rovral WP [trade name] manufactured by Bayer Crop Science Co., Ltd.), and streptomycin (Mycin Wettable powder [trade name] manufactured by Hokko Chemical Industry Co., Ltd.) was added together with a suspension of the bacteria causing the soft rot (Erwinia carotovora) to a preliminarily dissolved PSA culture medium (55 degrees Celsius) for subsequent thorough agitation, which was then spread on a plate for culturing at 27 degrees Celsius for 3 days, to examine the growth state. Subsequently, the formed colonies were examined according to the following three grades. • +: at the same level as the level of non-treated lot.
# (§2) Plus or minus: apparently less than the colonies of the non-treated lot. • −: almost no colonies observed.
# [4] = test system: bacteria causing the soft rot (Erwinia carotovora); assay: Inhibition test of growth of bacteria causing soft rot, Reference Test Example 5; format: cell-based; conditions: for formed colonies (growth state), grade: PSA medium, 27 degrees Celsius, 2 days
# Description: as §1, with “mepanipyrim (Flupika” for “fludioxonil (Seibia”, “by” for “by Syngenta Japan K.K.), iminoctadine albesilate salt (Bellkute WP [trade name], manufactured by”, “Ltd.)” for “Ltd.), iprodione (Rovral WP [trade name] manufactured by Bayer Crop Science Co., Ltd.),”, “2” for “3”
# as §2
SMILES,"formed colonies (growth state), grade ([1]; 100 ppm active ingredient)","formed colonies (growth state), grade ([1]; 500 ppm active ingredient)","formed colonies (growth state), grade ([1]; 1000 ppm active ingredient)",inhibition of growth of Erwinia carotovora (in words) [1],Determination of effect ([2]; 500 g ai/10 a),"formed colonies (growth state), grade ([3]; 100 ppm active ingredient)","formed colonies (growth state), grade ([3]; 500 ppm active ingredient)","formed colonies (growth state), grade ([3]; 1000 ppm active ingredient)",inhibition of growth of Erwinia carotovora (in words) [3],"formed colonies (growth state), grade ([4]; 100 ppm active ingredient)","formed colonies (growth state), grade ([4]; 500 ppm active ingredient)","formed colonies (growth state), grade ([4]; 1000 ppm active ingredient)","inhibition of growth of Erwinia carotovora (in words) ([4]; active ingredient concentration of 1,000 ppm)",Determination of effect ([2]; 1000 g ai/10 a)
"O=C(Nc1ccccc1-c1ccc(Cl)cc1)c1cccnc1Cl [Boscalid, 2-chloro-N-(4′-chlorobiphenyl-2-yl)nicotinamide]","+, +","+, +","+, +",never inhibited the growth,C (C: Effective at low level (21 to 40 disease control value)),,,,,,,,,
"N#Cc1c[nH]cc1-c1cccc2c1OC(F)(F)O2 [Fludioxonil, 4-(2,2-difluoro-1,3-benzodioxol-4-yl)pyrrole-3-carbonitrile]",,,,,C (C: Effective at low level (21 to 40 disease control value)),"+, +","+, +","+, +",never inhibited the growth,,,,,
"CC(C)NC(=O)N1CC(=O)N(c2cc(Cl)cc(Cl)c2)C1=O [Iprodione, 3-(3,5-dichlorophenyl)-N-isopropyl-2,4-dioxoimidazolizine-1-carboxamide]",,,,,B (B: Effective (41 to 60 disease control value)),"+, +","+, +","+, +",never inhibited the growth,,,,,
"CC#Cc1cc(C)nc(Nc2ccccc2)n1 [Mepanipyrim, N-(4-methyl-6-prop-1-ynylpyrimidin-2-yl)aniline]",,,,,B (B: Effective (41 to 60 disease control value)),,,,,"+, +","+, +","+, +",never inhibited the growth,
"CC12CC1(C)C(=O)N(c1cc(Cl)cc(Cl)c1)C2=O (stereo not drawn) [Procymidone, N-(3,5-dichlorophenyl)-1,2-dimethylcyclopropane-1,2-dicarboximide]","+, +","+, +","+, +",never inhibited the growth,A (A: Highly effective (61 or larger disease control value)),,,,,,,,,
"COC(=O)NC(=S)Nc1ccccc1NC(=S)NC(=O)OC [Thiophanate methyl, dimethyl=4,4′-(o-phenylene)bis(3-thioallophanate)]","+, +","+, +","+, +",never inhibited the growth,,,,,,,,,,B (B: Effective (41 to 60 disease control value))
